Measured values from patent publication US20090162911A1 (priority 2007, published 2009).
Where two headings read alike, the source gives them in different places.

Experiments:
[1] = test system: acrB transposition mutant strain DPD1852; conditions: LB with 0.2%, 0.3%, 0.4% or 0.6% 1-butanol (w/v), FIG. 3
Protocol: Overnight triplicate cultures of each strain were grown and diluted (1:10) into either LB or LB freshly supplemented with 0.2%, 0.3%. 0.4% or 0.6% 1-butanol (w/v). The growth of each culture was followed for approximately 18 hours.
An additional kinetic growth study was performed as described above.

E. coli strain EC100 = conditions: EC100 on solidified LB
Protocol: LB agar media supplemented with butanol was prepared fresh one day before innoculating at an appropriate volume and cooled for 2 hours in a 50° C. water bath. LB agar plates supplemented with butanol were prepared by dispensing 67 mls of melted agar, using a peristaltic pump and sterile Nalgene tubing, into sterile Omni trays with lids (Nunc mfg no. 242811). […] The plates were allowed to cool and set for approximately an hour before they were stored overnight in closed anaerobic chambers at room temperature in the chemical/biological hood. The next morning, the chambers harboring the plates were opened and allowed to air dry for approximately 1 hour before using.
Plates were incubated in a closed chamber at 37° C. for 1 day. The number of colonies arising and their sizes were scored. […] Butanol concentrations of 0.4% and 0.6% were chosen to screen for tolerance.

[2] = test system: acrB transposon mutant line DPD1852; format: cell-based, E. coli; conditions: acrB mutation, 18 hr exposure, FIG. 7
Protocol: Growth of the acrB transposon mutant line, DPD1852 (in Example 2), and the parental strain EC100 were compared in the presence of different butanols. Cultures were grown in LB medium at 37° C. to mid-logarithmic phase and then 200 μl was put into microtiter wells of a Bioscreen device that monitors optical density as a function of time. Triplicate wells contained a culture challenged with a specified concentration of a compound. For 2- and isobutanol the concentrations tested were 0, 0.8, 1.2, 1.4, and 1.6% weight percent. For 1-butanol the concentrations were 0, 0.2, 0.3, 0.4, and 0.6% w/v. For 2-butanone (MEK, methylethylketone) the concentrations were 0, 2.5, 3, 3.5 and 4% w/v.

rpoZ::kan line JW3624 = conditions: rpoZ mutant, 0.4 and 0.6% 1-butanol, 18 hr, FIG. 6
Protocol: (§1) Shake flask experiments were performed on the acrB rpoZ::kan constructed double mutant line DPD1899, as well as the acrB deletion line DPD1876, the rpoZ::kan line JW3624, and the wild type control BW25113 line. Cultures were grown in LB medium containing 0%, 0.4% or 0.6% 1-butanol in shake flasks. The experiments were performed by inoculating 100 ml of medium in a 250 ml plastic flask with 2 ml of an overnight culture grown from a single colony grown at 37° C. and incubating with shaking for approximately two doubling times (1 hour), to an OD600 between 0.2 and 0.3. Each culture was split into […] in plastic screw top 125 ml flasks and the cultures were maintained at 37° C. in a shaking water bath at 200 rpm. The OD600 was monitored at 0, 30, 90, 120 190, and 260 minutes.
(§2) In the cultures above, a final time point was taken at 18 hr and used to calculate growth yield as a function of 1-butanol challenge. For each line grown in 0, 0.4% or 0.6% 1-butanol, the final 18 hour time point was divided by the no 1-butanol 18 hr time point.

[3] = test system: wild type control BW25113; conditions: wild type cells, 0.4 and 0.6% 1-butanol, 18 hr, FIG. 6
Protocol: as §1, §2

[4] = test system: acrB deletion line DPD1876; conditions: acrB mutant, 0.4 and 0.6% 1-butanol, 18 hr, FIG. 6
Protocol: as §1, §2

[5] = test system: acrB rpoZ::kan double mutant line DPD1899; conditions: 0.4 and 0.6% 1-butanol, 18 hr, FIG. 6
Protocol: as §1, §2

[6] = test system: acrA insertion strain JW0452; format: cell-based, E. coli; conditions: for improved growth over the parental strain: acrA modified strain, 3 hr exposure, LB 37° C.; for tolerance of mutant relative to parent strain: acrA mutant JW0452, FIG. 8
Protocol: (§3) Strains of E. coli K12 EC100 having insertions in either the acrA or acrB coding regions, JW0452 and JW0451 respectively, were obtained from the Keio knockout collection described in Example 4. Growth of these strains was compared in the presence of 2-butanol and isobutanol in relation to the parental strain EC100. Overnight cultures were inoculated with a fresh colony and grown in LB at 37° C. with shaking. The next day the culture was diluted 1:100 into 100 ml of fresh LB in a 1 liter flask and grown for approximately 2 hours. The culture was split into 20 ml aliquots in 125 ml plastic screw top flasks. One culture remained unaltered serving as the no add control, and various concentrations of either 2-butanol or isobutanol were added to the remaining flasks. Absorbance (OD600) was monitored over time. Fractional growth yields were determined after 3 hr of exposure and percent improvement was calculated by subtracting the […] and multiplying by 100.

[7] = test system: acrB insertion strain JW0451; format: cell-based, E. coli; conditions: for improved growth over the parental strain: acrB modified strain, 3 hr exposure, LB 37° C.; for tolerance of mutant relative to parent strain: acrB mutant JW0451, FIG. 8
Protocol: as §3

[8] = test system: tolC transposon insertion mutant JW5503; experiment: Shake flask growth of tolC insertion mutant compared with parental strain; format: cell-based, E. coli
Protocol: as §3
In addition, a to/C transposon insertion mutant of the Keio collection, JW5503, was also assayed.

Compound | tolerance in terms of growth rate relative to wild type EC100 [1] | colony size (E. coli strain EC100; 0.6% 1-butanol, 37° C., 1 day) | concentration with no colony formation after overnight incubation (E. coli strain EC100; 37° C.) | concentration from which colonies were progressively smaller (E. coli strain EC100; closed chamber, 37° C., 1 day) [%] | titer (number of colonies arising) (E. coli strain EC100; range of 0 to 0.6% 1-butanol) | tolerance (growth improvement over parental EC100) [2] | growth yield (fractional growth) (rpoZ::kan line JW3624) | sensitivity to growth inhibition (fractional growth) [3] | growth yield (fractional growth) [4] | growth yield (fractional growth) [5] | improved growth over the parental strain ([6]; 0.6% of the compound) | improved growth over the parental strain ([6]; 0.8% of the compound) | tolerance of mutant relative to parent strain [6] | improved growth over the parental strain ([7]; 0.6% of the compound) | improved growth over the parental strain ([7]; 0.8% of the compound) | tolerance of mutant relative to parent strain [7] | growth response relative to parental strain [8] | improved growth over the parental strain ([6]; 0.4% of the compound) | improved growth over the parental strain ([7]; 0.4% of the compound)
CCCCO [1-butanol] | more tolerant to all of the concentrations of 1-butanol tested than the wild type strain | only pinpoint colonies | ≥ 0.7 % (w/v) | ≥ 0.2 | No change in titer | improved the tolerance | higher growth yields than wild type | most sensitive to growth inhibition | higher growth yields than wild type | even higher growth yield | – | – | – | – | – | – | – | – | –
CCC(C)O (stereo not drawn) [2-butanol] | – | – | – | – | – | improved the tolerance | – | – | – | – | about 12% | about 5% | more tolerant | about 24% | about 12% | more tolerant | indistinguishable from the parental strain | – | –
CCC(C)=O [MEK, 2-butanone] | – | – | – | – | – | improved the tolerance | – | – | – | – | – | – | – | – | – | – | – | – | –
CC(C)CO [isobutanol] | – | – | – | – | – | improved the tolerance | – | – | – | – | about 3.5% | – | more tolerant | about 2.5% | – | more tolerant | indistinguishable from the parental strain | about 18% | about 20%
